Measured values as given in US11725036B2, “Modified lipidated relaxin B chain peptides and their therapeutic use” (Sanofi, priority 2018, dated 2023).
Starred links: 1 amine or outer side, 2 acyl side, 3 side chain; linkers in the order of their positions; H or OH if unused. Non-standard residues stand in square brackets, D forms with d. Residues, ends and D or L forms follow the SMILES beside them. Groups on a side chain read outwards from the residue. *: point of attachment. X1 = CCCCCCCCCCCCCCCC(=O)N[C@@H](CCC(=O)N[C@@H](CCC(=O)N[C@@H](CCC(=O)NCCCOCCOCCOCCCNC(=O)CCC(=O)NCCCOCCOCCOCCCNC(=O)CCC(=O)NCCCOCCOCCOCCCN*)C(=O)O)C(=O)O)C(=O)O; Trp(5-F) = N[C@@H](Cc1c[nH]c2ccc(F)cc12)C(=O)O; Phe(4-F) = N[C@@H](Cc1ccc(F)cc1)C(=O)O; αMeF = C[C@](N)(Cc1ccccc1)C(=O)O; Suc = O=C(CCC(=O)[*:2])[*:1]; αMeK = C[C@](N)(CCCCN)C(=O)O; hLys = NCCCCC[C@H](N)C(=O)O; Aib = CC(C)(N)C(=O)O

Target: T1, RXFP1 (Homo sapiens, UniProt Q9HBX9)
T1 construct: OVCAR5 cells expressing endogenous RXFP1; endogenous in cells; host or cells: OVCAR5
T1 sequence (Q9HBX9 1-757): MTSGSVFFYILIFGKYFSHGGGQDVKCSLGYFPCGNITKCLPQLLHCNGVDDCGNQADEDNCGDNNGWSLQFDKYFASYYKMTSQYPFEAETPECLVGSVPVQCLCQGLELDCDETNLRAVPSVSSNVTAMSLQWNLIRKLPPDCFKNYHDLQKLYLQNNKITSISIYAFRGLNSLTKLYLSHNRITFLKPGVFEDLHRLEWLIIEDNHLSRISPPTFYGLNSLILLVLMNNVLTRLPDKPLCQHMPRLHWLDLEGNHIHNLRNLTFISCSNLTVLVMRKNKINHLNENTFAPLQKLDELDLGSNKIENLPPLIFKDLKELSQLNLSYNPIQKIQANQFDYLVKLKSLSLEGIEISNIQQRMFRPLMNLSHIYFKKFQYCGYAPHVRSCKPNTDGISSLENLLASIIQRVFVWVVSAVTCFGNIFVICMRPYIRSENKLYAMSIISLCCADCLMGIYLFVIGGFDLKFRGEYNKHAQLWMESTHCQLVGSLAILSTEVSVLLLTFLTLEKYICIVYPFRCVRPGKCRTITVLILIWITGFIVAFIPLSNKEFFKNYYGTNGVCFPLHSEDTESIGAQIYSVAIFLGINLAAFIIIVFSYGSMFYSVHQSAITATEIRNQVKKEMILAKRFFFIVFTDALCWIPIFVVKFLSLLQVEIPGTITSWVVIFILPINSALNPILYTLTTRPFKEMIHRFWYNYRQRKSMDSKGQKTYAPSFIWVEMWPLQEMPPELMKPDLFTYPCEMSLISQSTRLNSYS
Assay: OVCAR5 cAMP assay (HTRF)
Assay type: cell-based
Details: for EC50: OVCAR 5 cells expressing endogenous RXFP1, cAMP readout; for Emax: OVCAR 5 cells, maximal cAMP relative to H2-relaxin
How it was run: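 Peptide agonism measured as intracellular cAMP (HTRF) after 30 min at 37° C in serum-free medium, following 40 min 1 mM IBMX preincubation of OVCAR5 cells. Nonlinear regression gave EC50; Emax % = 100 × compound maximal cAMP / H2-relaxin maximal cAMP.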

EC50 | Emax | Structure (SMILES)
0.17 nM | 96% | CCCCCCCCCCCCCCCC(=O)N[C@@H](CCC(=O)N[C@@H](CCC(=O)N[C@@H](CCC(=O)NCCCOCCOCCOCCCNC(=O)CCC(=O)NCCCOCCOCCOCCCNC(=O)CCC(=O)NCCCOCCOCCOCCCNC(=O)CCC(=O)NCCCC[C@H](NC(=O)CNC(=O)[C@H](CCC(=O)O)NC(=O)C(C)(C)NC(=O)C(C)(C)NC(=O)[C@@H](NC(=O)[C@H](CCCCNC(C)=O)NC(=O)[C@H](C)NC(=O)[C@H](CCCNC(=N)N)NC(=O)[C@@H](NC(=O)[C@H](CCCCN)NC(=O)[C@H](CCC(=O)O)NC(=O)[C@H](CCCNC(=N)N)NC(=O)CNC(=O)[C@H](CCC(=O)O)NC(=O)[C@H](CC(C)C)NC(C)=O)C(C)C)[C@@H](C)CC)C(=O)N[C@@H](CO)C(=O)N[C@H](C(=O)N[C@@H](Cc1ccccc1)C(=O)N[C@@H](CO)C(=O)N[C@@H](CCCCCN)C(=O)N[C@@H](CCCNC(=N)N)C(=O)N[C@@H](C)C(=O)N[C@@H](CCCCNC(C)=O)C(N)=O)[C@@H](C)O)C(=O)O)C(=O)O)C(=O)O [compound 88] (Ac-LEGREKVRAK(Ac)I[Aib][Aib]EGK([Suc-X1])STFS[hLys]RAK(Ac)-NH2)
0.1 nM | 97% | CCCCCCCCCCCCCCCC(=O)N[C@@H](CCC(=O)N[C@@H](CCC(=O)N[C@@H](CCC(=O)NCCCOCCOCCOCCCNC(=O)CCC(=O)NCCCOCCOCCOCCCNC(=O)CCC(=O)NCCCOCCOCCOCCCNC(=O)CCC(=O)NCCCC[C@H](NC(=O)CNC(=O)[C@H](CCC(=O)O)NC(=O)C(C)(C)NC(=O)C(C)(C)NC(=O)[C@@H](NC(=O)[C@H](CCCCNC(C)=O)NC(=O)[C@H](C)NC(=O)[C@H](CCCNC(=N)N)NC(=O)[C@@H](NC(=O)[C@H](CCCCN)NC(=O)[C@H](CCC(=O)O)NC(=O)[C@H](CCCNC(=N)N)NC(=O)CNC(=O)[C@H](CCC(=O)O)NC(=O)[C@H](CC(C)C)NC(C)=O)C(C)C)[C@@H](C)CC)C(=O)N[C@@H](CO)C(=O)N[C@H](C(=O)N[C@@](C)(Cc1ccccc1)C(=O)N[C@@H](CO)C(=O)N[C@@H](CCCNC(=N)N)C(=O)N[C@@H](CCCNC(=N)N)C(=O)N[C@@H](C)C(=O)N[C@@H](CCCCNC(C)=O)C(N)=O)[C@@H](C)O)C(=O)O)C(=O)O)C(=O)O [compound 89] (Ac-LEGREKVRAK(Ac)I[Aib][Aib]EGK([Suc-X1])ST[αMeF]SRRAK(Ac)-NH2)
0.14 nM | 97% | CCCCCCCCCCCCCCCC(=O)N[C@@H](CCC(=O)N[C@@H](CCC(=O)N[C@@H](CCC(=O)NCCCOCCOCCOCCCNC(=O)CCC(=O)NCCCOCCOCCOCCCNC(=O)CCC(=O)NCCCOCCOCCOCCCNC(=O)CCC(=O)NCCCC[C@H](NC(=O)CNC(=O)[C@H](CCC(=O)O)NC(=O)C(C)(C)NC(=O)[C@H](C)NC(=O)[C@@H](NC(=O)[C@H](CCCCNC(C)=O)NC(=O)[C@H](C)NC(=O)[C@H](CCCNC(=N)N)NC(=O)[C@@H](NC(=O)[C@H](CCCCN)NC(=O)[C@H](CCC(=O)O)NC(=O)[C@H](CCCNC(=N)N)NC(=O)CNC(=O)[C@H](CCC(=O)O)NC(=O)[C@H](CC(C)C)NC(C)=O)C(C)C)[C@@H](C)CC)C(=O)N[C@@H](CO)C(=O)N[C@H](C(=O)N[C@@H](Cc1ccccc1)C(=O)N[C@@H](CO)C(=O)N[C@@](C)(CCCCN)C(=O)N[C@@H](CCCNC(=N)N)C(=O)N[C@@H](C)C(=O)N[C@@H](CCCCNC(C)=O)C(N)=O)[C@@H](C)O)C(=O)O)C(=O)O)C(=O)O [compound 90] (Ac-LEGREKVRAK(Ac)IA[Aib]EGK([Suc-X1])STFS[αMeK]RAK(Ac)-NH2)
0.09 nM | 97% | CCCCCCCCCCCCCCCC(=O)N[C@@H](CCC(=O)N[C@@H](CCC(=O)N[C@@H](CCC(=O)NCCCOCCOCCOCCCNC(=O)CCC(=O)NCCCOCCOCCOCCCNC(=O)CCC(=O)NCCCOCCOCCOCCCNC(=O)CCC(=O)NCCCC[C@H](NC(=O)CNC(=O)[C@H](CCC(=O)O)NC(=O)C(C)(C)NC(=O)C(C)(C)NC(=O)[C@@H](NC(=O)[C@H](CCCCNC(C)=O)NC(=O)[C@H](C)NC(=O)[C@H](CCCNC(=N)N)NC(=O)[C@@H](NC(=O)[C@H](CCCNC(=N)N)NC(=O)[C@H](CCC(=O)O)NC(=O)[C@H](CCCNC(=N)N)NC(=O)CNC(=O)[C@H](CCC(=O)O)NC(=O)[C@H](CC(C)C)NC(C)=O)C(C)C)[C@@H](C)CC)C(=O)N[C@@H](CO)C(=O)N[C@H](C(=O)N[C@@H](Cc1ccc(F)cc1)C(=O)N[C@@H](CO)C(=O)NC(C)(C)C(=O)N[C@@H](CCCNC(=N)N)C(=O)N[C@@H](CCCNC(=N)N)C(=O)N[C@@H](CCCCNC(C)=O)C(N)=O)[C@@H](C)O)C(=O)O)C(=O)O)C(=O)O [compound 91] (Ac-LEGRERVRAK(Ac)I[Aib][Aib]EGK([Suc-X1])ST[Phe(4-F)]S[Aib]RRK(Ac)-NH2)
0.1 nM | 99% | CCCCCCCCCCCCCCCC(=O)N[C@@H](CCC(=O)N[C@@H](CCC(=O)N[C@@H](CCC(=O)NCCCOCCOCCOCCCNC(=O)CCC(=O)NCCCOCCOCCOCCCNC(=O)CCC(=O)NCCCOCCOCCOCCCNC(=O)CCC(=O)NCCCC[C@H](NC(=O)CNC(=O)[C@H](CCC(=O)O)NC(=O)C(C)(C)NC(=O)C(C)(C)NC(=O)[C@@H](NC(=O)[C@H](CCCCNC(C)=O)NC(=O)[C@H](C)NC(=O)[C@H](CCCNC(=N)N)NC(=O)[C@@H](NC(=O)[C@H](CCCNC(=N)N)NC(=O)[C@H](CCC(=O)O)NC(=O)[C@H](CCCNC(=N)N)NC(=O)CNC(=O)[C@H](CCC(=O)O)NC(=O)[C@H](CC(C)C)NC(C)=O)C(C)C)[C@@H](C)CC)C(=O)N[C@@H](CO)C(=O)N[C@H](C(=O)N[C@@H](Cc1c[nH]c2ccc(F)cc12)C(=O)N[C@@H](CO)C(=O)NC(C)(C)C(=O)N[C@@H](CCCNC(=N)N)C(=O)N[C@@H](CCCNC(=N)N)C(=O)N[C@@H](CCCCNC(C)=O)C(N)=O)[C@@H](C)O)C(=O)O)C(=O)O)C(=O)O [compound 92] (Ac-LEGRERVRAK(Ac)I[Aib][Aib]EGK([Suc-X1])ST[Trp(5-F)]S[Aib]RRK(Ac)-NH2)
0.77 nM | 86% | CCCCCCCCCCCCCCCC(=O)N[C@@H](CCC(=O)N[C@@H](CCC(=O)N[C@@H](CCC(=O)NCCCOCCOCCOCCCNC(=O)CCC(=O)NCCCOCCOCCOCCCNC(=O)CCC(=O)NCCCOCCOCCOCCCNC(=O)CCC(=O)NCCCC[C@H](NC(=O)CNC(=O)[C@H](CCC(=O)O)NC(=O)C(C)(C)NC(=O)C(C)(C)NC(=O)[C@@H](NC(=O)[C@H](CCCCNC(C)=O)NC(=O)[C@H](C)NC(=O)[C@H](CCCNC(=N)N)NC(=O)[C@@H](NC(=O)[C@H](CCCCN)NC(=O)[C@H](CCC(=O)O)NC(=O)[C@H](CCCNC(=N)N)NC(=O)CNC(=O)[C@H](CCC(=O)O)NC(=O)[C@H](CC(C)C)NC(C)=O)C(C)C)[C@@H](C)CC)C(=O)N[C@@H](CO)C(=O)N[C@H](C(=O)N[C@@H](Cc1ccccc1)C(=O)N[C@H](C(=O)N[C@@H](CCCNC(=N)N)C(=O)N[C@@H](CCCNC(=N)N)C(=O)N[C@@H](C)C(=O)N[C@@H](CCCCNC(C)=O)C(N)=O)[C@@H](C)O)[C@@H](C)O)C(=O)O)C(=O)O)C(=O)O [compound 93] (Ac-LEGREKVRAK(Ac)I[Aib][Aib]EGK([Suc-X1])STFTRRAK(Ac)-NH2)
1.74 nM | 88% | CCCCCCCCCCCCCCCC(=O)N[C@@H](CCC(=O)N[C@@H](CCC(=O)N[C@@H](CCC(=O)NCCCOCCOCCOCCCNC(=O)CCC(=O)NCCCOCCOCCOCCCNC(=O)CCC(=O)NCCCOCCOCCOCCCNC(=O)CCC(=O)NCCCC[C@H](NC(=O)CNC(=O)[C@H](CCC(=O)O)NC(=O)C(C)(C)NC(=O)C(C)(C)NC(=O)[C@@H](NC(=O)[C@H](CCCCNC(C)=O)NC(=O)[C@H](C)NC(=O)[C@H](CCCNC(=N)N)NC(=O)[C@@H](NC(=O)[C@H](CCCCN)NC(=O)[C@H](CCC(=O)O)NC(=O)[C@H](CCCNC(=N)N)NC(=O)CNC(=O)[C@H](CCC(=O)O)NC(=O)[C@H](CC(C)C)NC(C)=O)C(C)C)[C@@H](C)CC)C(=O)N[C@@H](CO)C(=O)N[C@H](C(=O)N[C@@H](Cc1ccccc1)C(=O)N[C@H](C(=O)N[C@@H](CCCNC(=N)N)C(=O)N[C@@H](CCCNC(=N)N)C(=O)N[C@@H](C)C(=O)N[C@@H](CCCCNC(C)=O)C(N)=O)C(C)C)[C@@H](C)O)C(=O)O)C(=O)O)C(=O)O [compound 94] (Ac-LEGREKVRAK(Ac)I[Aib][Aib]EGK([Suc-X1])STFVRRAK(Ac)-NH2)
